Data published in US3982999A, “Complexing cresolase with copper chelating agents” (priority 1974, dated 1976).
“And” between values parts separate entries of the source, which are not always exact repeats. Equal values may be shown once. Read-outs that look alike come from different tables or passages of the source.

Columns and labels:
[1] = system: Tyrosinase (polyphenol oxidase) isolated from mushrooms; settings: control 0.0433
Method: ^a Tyrosinase (polyphenol oxidase) isolated from mushrooms and purchased from Sigma, St. Louis, Mo. The reaction was carried out in 2 quartz curvette containing 1 ml of phosphate buffer (0.5 M, pH 6.5) 1 ml of substrate (1 mM L-tyrosine in H2 O), 0.5 ml of solvent or drug, 0.5 ml H2 O (for blank), 0.4 ml H2 O and 0.1 ml of enzyme (0.5 mg/ml) for the reaction tube. The reaction was started by the addition of enzyme and the change of optical density (Δ O.D.) was determined at 1 min intervals.

L1210 leukemia cells [2] = test: 3-day L1210 cell growth inhibition assay in tyrosine-phenylalanine depleted medium; type: cell-based, mouse; settings: Tyrosine and Phenylalamine Depleted Medium, 0.15 g/ml 8-Hydroxyquinoline
Excerpt: (§1) In this experiment, we further investigated the effects of tyrosinase on L1210 cell growth with two media; 1) complete or regular medium and; 2) tyrosine-phenylalanine depleted medium.
(§2) ^a 3-day cell growth inhibition assay.

[3] = Day 1-5 weight change of L1210-bearing mice to assess toxicity; type: in vivo
Method: (§3) Male BDF1 mice, initial weight ca 23g, were inoculated i.p. on Day 0 with 10^5 L1210 cells per mouse. Treatment was initiated on Day 1 and continued through Day 9. Animals were weighed on days 1 and 5 to assess toxicity. Agents were prepared fresh daily as follows: 8-OH-quinoline (Eastman Chemical Co.) was dissolved in a small volume of absolute ethanol and diluted to the appropriate concentration with 0.1M sodium phosphate buffer, pH 6.5 (final ethanol concentration: 3%). Dilutions were made in buffer containing 3% ethanol. Tyrosinase^2 (Sigma Chemical Co., lot 121C-9530) was dissolved in buffer containing 3% ethanol. (Previous studies had shown that 3% ethanol had no effect on the activity of the enzyme) For the combination, 8-OH-quinoline was again dissolved in a small volume of ethanol, but diluted with 0.1M sodium phosphate buffer; pH6.5, containing tyrosinase in the appropriate concentration. Dilutions were made in buffer containing both 3% ethanol and tyrosinase so that both ethanol and tyrosinase concentrations remained constant as the 8-OH-quinoline concentration decreased. The combination was "incubated" at room temperature for 30 minutes before administration. The radio of enzyme to substrate administered in the combination was varied from 1:1 to 1:.125.

[4] = Preliminary toxicity study, single intraperitoneal dose; settings: mouse, in vivo, ip; single intraperitoneal (i.p.) dose, suspended in Klucel (0.3% hydroxy-propylcellulose), male BDF1 mice
L1210 mouse leukemia = test: Antileukemia activity against L1210 mouse leukemia in BDF1 mice (survival); type: in vivo; settings: for T/C (test group mean day of death / control group mean day of death): Day 1 through Day 9, uninjected control group
Method: as §3
Actual doses administered and results comprise Table IV. Results are expressed as the ratio (T/C) of the test group mean day of death to control group mean day of death.

L1210 leukemia cells [5] = test: 3-day L1210 cell growth inhibition assay in culture (complete or regular medium); type: cell-based, mouse; settings: for L1210 Cell Growth (cell concentration day 3 - day 0): control growth 147.9
Excerpt: as §1, §2
^b Cell Growth = (cell concentration day 3 - cell concentration day 0

[6] = 8-Hydroxyquinoline 0.15 μg/ml, Tyrosinase 0

For Oc1cccc2cccnc12 [8-Hydroxyquinoline, 8-hydroxyquinoline], the “Reaction Rate” value ([1]; 8-Hydroxyquinoline 10 μg/ml) was 0.0353 Δ OD/Min, the “Reaction Rate” value ([1]; 8-Hydroxyquinoline 50 μg/ml) was 0.0160 Δ OD/Min and the “Reaction Rate” value ([1]; 8-Hydroxyquinoline 200 μg/ml) was 0.0007 Δ OD/Min. The “Inhibition (%)” value (L1210 leukemia cells [2]; two experiments) was 45.6% and 52.2%, the “Cell × 10^3 /ml” value (L1210 leukemia cells [2]; two experiments (controls 102.5, 62.1)) was 55.8 × 10^3 /ml and 29.7 × 10^3 /ml and the “Day 1-5 Weight Change” value ([3]; 2.5 mg/kg/day) was -0.3 gm/mouse. The “Day 1-5 Weight Change” value ([3]; 5 mg/kg/day) was “+1.4 gm/mouse”, the “Day 1-5 Weight Change” value ([3]; 10 mg/kg/day) was “+1.0 gm/mouse” and the “Day 1-5 Weight Change” value ([3]; 20 mg/kg/day) was “+1.0 gm/mouse”. For the same compound, the LD50 [4] was roughly 75 mg/kg, the “T/C (test group mean day of death / control group mean day of death)” value (L1210 mouse leukemia; 2.5 mg/kg/day) was “.95” and the “T/C (test group mean day of death / control group mean day of death)” value (L1210 mouse leukemia; 5 mg/kg/day) was “.92”. For the same compound, the “T/C (test group mean day of death / control group mean day of death)” value (L1210 mouse leukemia; 10 mg/kg/day) was “.97”, the “T/C (test group mean day of death / control group mean day of death)” value (L1210 mouse leukemia; 20 mg/kg/day) was “.97” and the “Mean day of Death (I.S.D.)” value (L1210 mouse leukemia; mouse, in vivo, listed as 8-OH-quinoline) was 9.5 ± 0.8 days and 9.5 ± 0.4 days and 9.0 ± 0.6 days and 9.3 ± 0.8 days. The “L1210 Cell Growth (cell concentration day 3 - day 0)” value (L1210 leukemia cells [5]; 8-Hydroxyquinoline 0.1 μg/ml, Tyrosinase 0) was 126.8 × 10^3 cells/ml, the “L1210 Cell Growth % Inhibition (%I)” value (L1210 leukemia cells [5]; [6]) was 61.9% and the “L1210 Cell Growth (cell concentration day 3 - day 0)” value (L1210 leukemia cells [5]; [6]) was 56.4 × 10^3 cells/ml. For the same compound, the “L1210 Cell Growth (cell concentration day 3 - day 0)” value (L1210 leukemia cells [5]; 8-Hydroxyquinoline 0.2 μg/ml, Tyrosinase 0) was 7.4 × 10^3 cells/ml, the “Inhibition (%)” value (L1210 leukemia cells [5]; Completed Medium, 0.15 g/ml 8-Hydroxyquinoline, two experiments) was 12.1% and 21.8% and the “Cell × 10^3 /ml” value (L1210 leukemia cells [5]; Completed Medium, 0.15 g/ml 8-Hydroxyquinoline, two experiments (controls 391.9, 358.5)) was 344.5 × 10^3 /ml and 280.2 × 10^3 /ml. For the same compound, the inhibition at 0.1 µg/mL (L1210 leukemia cells [5]; Mus musculus, L1210, 8-Hydroxyquinoline 0.1 μg/ml, Tyrosinase 0, read-out: L1210 Cell Growth % Inhibition (%I)) was 14.3%, the inhibition at 0.15 µg/mL (L1210 leukemia cells [5]; Mus musculus, L1210, 8-Hydroxyquinoline 0.15 μg/ml, Tyrosinase 0, read-out: L1210 Cell Growth % Inhibition (%I)) was greater than 60% and the inhibition at 0.2 µg/mL (L1210 leukemia cells [5]; Mus musculus, L1210, 8-Hydroxyquinoline 0.2 μg/ml, Tyrosinase 0, read-out: L1210 Cell Growth % Inhibition (%I)) was 95%.
